Source: patent publication US10421754B2, “Quinazoline derivative” (CSPC ZHONGQI PHARMACEUTICAL TECHNOLOGY (SHIJIAZHUANG) CO., …, priority 2014, dated 2019)

Columns and labels:
PC-9 = assay: In vitro cell experiment (MTT), PC-9; assay type: cell-based; conditions: 72 h, human non-small-cell lung carcinoma cells (EGFR1 19 exon mutation)
Outline: (§1)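 Seeded cells in log phase are left 24 h before a 72 h drug exposure at 37° C. Viability is read by MTT reduction (0.5 mg/mL final, 4 h) and OD at 550 nm. Values are LOGIT-derived IC50s, mean±SD of duplicate runs.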

TT = assay: In vitro cell experiment (MTT), TT; assay type: cell-based; conditions: 72 h, human thyroid carcinoma cells (RET C634W mutation)
Procedure: (§2) Cells in logarithmic growth phase were seeded at a certain density in a 96-well plate (200 μL/well). The cells were allowed to grow for 24 h and subsequently treated with different concentrations of drugs (including a blank group and a control group) and incubated for 72 h at 37° C. Each concentration in a given experiment was tested in triplicate. After 72 h of exposure, 20 μL of the MTT labeling reagent was added to the medium (the final concentration of MTT was 0.5 mg/mL), and the cells were incubated for additional 4 h at 37° C. Following this process, 180 μL of the medium was removed and 130 μL of DMSO was added to each well, or the medium was completely removed and 150 μL of DMSO was added to each well. Then the plate was shaken and mixed in a micro-oscillator. Finally the optical density (OD) of each sample was measured in a micro-plate reader at 550 nm. Cell inhibition rate was calculated according to the following formula: […]
(§3) According to cell inhibition rates, IC50 was calculated by LOGIT method. The experiments were repeated twice and the data was expressed as means±SD.

FLT-1 = FLT-1 (Homo sapiens, UniProt P17948); assay: In vitro enzyme experiment (ELISA), FLT-1; assay type: biochemical; conditions: Poly (Glu, Tyr)4:1 substrate, 5 μM ATP
Chain of FLT-1 (P17948 27-1338): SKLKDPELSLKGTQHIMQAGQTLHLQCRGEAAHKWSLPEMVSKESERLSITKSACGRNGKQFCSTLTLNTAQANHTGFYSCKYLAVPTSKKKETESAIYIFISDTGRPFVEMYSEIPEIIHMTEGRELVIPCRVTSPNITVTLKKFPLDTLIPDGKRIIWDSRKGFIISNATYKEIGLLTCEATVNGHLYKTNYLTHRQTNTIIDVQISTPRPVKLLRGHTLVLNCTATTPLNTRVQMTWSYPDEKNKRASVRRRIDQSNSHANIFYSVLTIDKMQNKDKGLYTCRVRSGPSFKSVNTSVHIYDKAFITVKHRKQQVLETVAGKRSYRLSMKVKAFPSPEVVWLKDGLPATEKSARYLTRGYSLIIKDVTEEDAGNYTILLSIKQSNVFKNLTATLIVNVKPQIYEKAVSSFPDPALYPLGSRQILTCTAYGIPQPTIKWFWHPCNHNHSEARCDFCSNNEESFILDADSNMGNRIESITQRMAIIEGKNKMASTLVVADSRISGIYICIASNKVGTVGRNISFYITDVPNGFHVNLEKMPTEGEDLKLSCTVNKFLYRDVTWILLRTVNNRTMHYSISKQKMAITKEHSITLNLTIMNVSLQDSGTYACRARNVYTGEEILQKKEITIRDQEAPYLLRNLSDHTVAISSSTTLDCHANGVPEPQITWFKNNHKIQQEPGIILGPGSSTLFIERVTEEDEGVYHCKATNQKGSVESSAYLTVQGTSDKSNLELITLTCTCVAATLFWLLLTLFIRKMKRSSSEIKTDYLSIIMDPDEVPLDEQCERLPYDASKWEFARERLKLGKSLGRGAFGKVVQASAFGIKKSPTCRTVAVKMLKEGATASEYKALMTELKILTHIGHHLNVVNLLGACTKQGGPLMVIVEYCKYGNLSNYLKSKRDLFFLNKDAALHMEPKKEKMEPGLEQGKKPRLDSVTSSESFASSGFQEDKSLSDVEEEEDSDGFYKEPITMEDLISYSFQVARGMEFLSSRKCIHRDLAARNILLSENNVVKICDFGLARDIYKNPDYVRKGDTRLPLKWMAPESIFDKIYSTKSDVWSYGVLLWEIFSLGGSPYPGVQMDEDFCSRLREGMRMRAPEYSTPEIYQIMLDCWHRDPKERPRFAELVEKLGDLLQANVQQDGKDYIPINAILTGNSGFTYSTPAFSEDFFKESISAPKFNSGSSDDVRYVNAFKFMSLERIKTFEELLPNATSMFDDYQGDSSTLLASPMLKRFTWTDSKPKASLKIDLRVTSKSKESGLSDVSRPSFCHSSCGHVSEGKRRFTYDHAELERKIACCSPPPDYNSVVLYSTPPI
Procedure: FLT-1: Human vascular endothelial growth factor receptor 1
(§4) ELISA: The enzyme plate was coated by enzyme reaction substrate (Poly (Glu, Tyr)4:1) at a density of 20 μg/ml. Then the enzyme, the sample and 5 μM ATP were mixed in the well to react. After the reaction, the substrate phosphorylation was detected by anti-phosphotyrosine monoclonal antibody (4G10). In the next step, the goat-anti-mouse IgG linking with horse radish peroxidase (HRP) and tetramethylbenzidine (TMB) were added sequentially in the well to evaluate the level of substrate phosphorylation by the degree of color depth. In the experiment, a blank group without tyrosine kinase and a control group with the corresponding concentration of DMSO were established. Finally, 50 μL/well of H2SO4 at a concentration of 0.18M was added in each well to stop the reaction. The optical density (OD) of each sample was measured in a micro-plate reader at 450 nm.
(§5) The relative inhibition rate of the compound against tyrosine kinase protein was determined.
(§6) According to the inhibition rates at different concentrations, IC50 was calculated by LOGIT method. The experiments were repeated three times, and the average of three IC50 values was the final index to evaluate the ability of inhibition.

H292 = assay: In vitro cell experiment (MTT), H292; assay type: cell-based; conditions: NCI-H292, 72 h, human lung carcinoma cells (EGFR1 overexpressing)
Outline: as §1

Eca109 = assay: In vitro cell experiment (MTT), Eca109; assay type: cell-based; conditions: ECa-109, 72 h, human esophageal carcinoma cells
Procedure: as §2, §3

[1] = Mouse maximum tolerated dose (MTD) experiment; conditions: in vivo, mice, oral, administered 7 days then observed 7 days
Outline: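 Healthy mice, weight-stratified and randomized, three per dose group, received compound orally by body weight at 1000, 500, 250, 125, 62.5 or 31.25 mg/kg for 7 days. Dosing was followed by 7 days of observation without compound.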

A498 = assay: In vitro cell experiment (MTT), A498; assay type: cell-based; conditions: 72 h, human renal carcinoma cells
Procedure: as §2, §3

PDGFRβ = PDGFRβ (Homo sapiens, UniProt P09619); assay: In vitro enzyme experiment (ELISA), PDGFRβ; assay type: biochemical; conditions: Poly (Glu, Tyr)4:1 substrate, 5 μM ATP
Chain of PDGFRβ (P09619 33-1106, species assumed): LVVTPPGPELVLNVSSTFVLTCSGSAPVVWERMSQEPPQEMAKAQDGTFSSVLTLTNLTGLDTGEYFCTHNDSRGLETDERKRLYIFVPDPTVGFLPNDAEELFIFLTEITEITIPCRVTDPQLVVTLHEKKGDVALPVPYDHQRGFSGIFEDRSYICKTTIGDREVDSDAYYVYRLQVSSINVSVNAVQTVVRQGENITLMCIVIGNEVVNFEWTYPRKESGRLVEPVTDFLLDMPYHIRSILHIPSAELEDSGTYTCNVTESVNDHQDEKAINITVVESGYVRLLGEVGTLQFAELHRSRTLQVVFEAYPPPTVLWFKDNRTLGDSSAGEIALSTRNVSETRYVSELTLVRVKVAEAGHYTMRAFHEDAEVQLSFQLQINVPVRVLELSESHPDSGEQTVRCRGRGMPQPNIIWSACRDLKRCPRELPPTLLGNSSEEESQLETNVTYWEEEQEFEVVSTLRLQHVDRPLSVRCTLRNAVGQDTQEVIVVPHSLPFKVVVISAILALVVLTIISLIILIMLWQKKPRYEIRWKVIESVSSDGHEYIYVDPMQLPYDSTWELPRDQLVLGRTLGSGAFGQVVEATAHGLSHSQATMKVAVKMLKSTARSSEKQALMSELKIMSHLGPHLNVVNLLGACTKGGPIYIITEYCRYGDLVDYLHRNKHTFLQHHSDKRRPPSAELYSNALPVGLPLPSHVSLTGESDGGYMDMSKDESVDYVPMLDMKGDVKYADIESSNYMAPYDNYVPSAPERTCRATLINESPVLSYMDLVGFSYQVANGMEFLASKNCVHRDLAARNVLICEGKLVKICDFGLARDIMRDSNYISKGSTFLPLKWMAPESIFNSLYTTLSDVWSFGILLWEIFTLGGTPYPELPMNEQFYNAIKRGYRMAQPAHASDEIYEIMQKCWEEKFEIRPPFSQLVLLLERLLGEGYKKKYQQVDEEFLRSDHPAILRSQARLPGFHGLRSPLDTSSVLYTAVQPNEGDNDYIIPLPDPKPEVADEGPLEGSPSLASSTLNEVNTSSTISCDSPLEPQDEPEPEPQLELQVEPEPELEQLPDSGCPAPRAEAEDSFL
Procedure: PDGFRβ: Platelet-derived growth factor receptor β
as §4, §5, §6

3T3swiss = assay: In vitro cell experiment (MTT), 3T3swiss; assay type: cell-based; conditions: Fibroblast, 72 h, mouse fibroblasts (PDGFR overexpressing)
Outline: as §1

HCT116 = assay: In vitro cell experiment (MTT), HCT116; assay type: cell-based; conditions: HCT-116, 72 h, human colon carcinoma cells
Outline: as §1

CFPAC-1 = assay: In vitro cell experiment (MTT), CFPAC-1; assay type: cell-based; conditions: 72 h, human pancreatic carcinoma cells
Procedure: as §2, §3

A549 = assay: In vitro cell experiment (MTT), A549; assay type: cell-based; conditions: 72 h, human non-small-cell lung carcinoma cells (EGFR1 wildtype)
Outline: as §1

Bel-7402 = assay: In vitro cell experiment (MTT), Bel-7402; assay type: cell-based; conditions: 72 h, human hepatoma carcinoma cells
Outline: as §1

A431 = assay: In vitro cell experiment (MTT), A431; assay type: cell-based; conditions: A-431, 72 h, human epidermoid carcinoma (EGFR1 overexpressing)
Outline: as §1

HUVEC = assay: In vitro cell experiment (MTT), HUVEC; assay type: cell-based; conditions: 72 h, human umbilical vein endothelial cell (KDR overexpressing)
Outline: as §1

SK-OV-3 = assay: In vitro cell experiment (MTT), SK-OV-3; assay type: cell-based; conditions: 72 h, human ovarian carcinoma cells (EGFR2 overexpressing)
Outline: as §1

KDR = KDR (Homo sapiens, UniProt P35968); assay: In vitro enzyme experiment (ELISA), KDR; assay type: biochemical; conditions: Poly (Glu, Tyr)4:1 substrate, 5 μM ATP
Procedure: KDR: Human vascular endothelial growth factor receptor 2
as §4, §5, §6

RET = RET (Homo sapiens, UniProt P07949); assay: In vitro enzyme experiment (ELISA), RET; assay type: biochemical; conditions: Poly (Glu, Tyr)4:1 substrate, 5 μM ATP
Procedure: RET: A receptor involved in thyroid cancer
as §4, §5, §6

HT-29 = assay: In vitro cell experiment (MTT), HT-29; assay type: cell-based; conditions: 72 h, human colon carcinoma cells (expressing both c-KIT and PDGFR)
Outline: as §1

A375 = assay: In vitro cell experiment (MTT), A375; assay type: cell-based; conditions: A-375, 72 h, human melanoma cells (KDR expressing)
Procedure: as §2, §3

FGFR-1 = FGFR-1 (Homo sapiens, UniProt P11362); assay: In vitro enzyme experiment (ELISA), FGFR-1; assay type: biochemical; conditions: Poly (Glu, Tyr)4:1 substrate, 5 μM ATP
Chain of FGFR-1 (P11362 22-822, species assumed): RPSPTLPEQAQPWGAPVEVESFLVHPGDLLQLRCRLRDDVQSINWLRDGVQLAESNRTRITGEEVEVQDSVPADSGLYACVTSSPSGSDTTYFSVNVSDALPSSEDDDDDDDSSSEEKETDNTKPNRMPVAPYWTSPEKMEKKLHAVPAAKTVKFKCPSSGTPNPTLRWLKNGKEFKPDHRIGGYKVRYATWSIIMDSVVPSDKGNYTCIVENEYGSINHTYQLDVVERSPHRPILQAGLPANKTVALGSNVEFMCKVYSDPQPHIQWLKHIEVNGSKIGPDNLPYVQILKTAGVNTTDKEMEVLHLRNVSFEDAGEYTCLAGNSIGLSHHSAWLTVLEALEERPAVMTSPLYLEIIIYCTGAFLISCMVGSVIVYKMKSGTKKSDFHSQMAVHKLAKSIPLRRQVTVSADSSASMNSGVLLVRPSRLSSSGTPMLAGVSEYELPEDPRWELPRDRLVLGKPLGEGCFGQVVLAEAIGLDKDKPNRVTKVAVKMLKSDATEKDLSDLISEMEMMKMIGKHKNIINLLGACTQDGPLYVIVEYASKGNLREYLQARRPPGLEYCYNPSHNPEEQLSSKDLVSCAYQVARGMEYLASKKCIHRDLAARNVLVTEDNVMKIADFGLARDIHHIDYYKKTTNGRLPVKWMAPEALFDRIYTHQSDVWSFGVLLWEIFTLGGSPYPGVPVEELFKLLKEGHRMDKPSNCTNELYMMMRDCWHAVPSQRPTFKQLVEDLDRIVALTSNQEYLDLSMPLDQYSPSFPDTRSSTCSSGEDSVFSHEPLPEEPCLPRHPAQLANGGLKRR
Procedure: FGFR-1: Fibroblast growth factor receptor 1
as §4, §5, §6

HCC827 = assay: In vitro cell experiment (MTT), HCC827; assay type: cell-based; conditions: 72 h, human non-small cell lung carcinoma (EGFR1 19 exon mutation)
Outline: as §1

EGFR = EGFR (Homo sapiens, UniProt P00533); assay: In vitro enzyme experiment (ELISA), EGFR; assay type: biochemical; conditions: Poly (Glu, Tyr)4:1 substrate, 5 μM ATP
Procedure: EGFR: Human epidermal growth factor receptor 1
as §4, §5, §6

BTK = BTK (Homo sapiens, UniProt Q06187); assay: In vitro enzyme experiment (ELISA), BTK; assay type: biochemical; conditions: Poly (Glu, Tyr)4:1 substrate, 5 μM ATP
Chain of BTK (Q06187 whole entry, species assumed): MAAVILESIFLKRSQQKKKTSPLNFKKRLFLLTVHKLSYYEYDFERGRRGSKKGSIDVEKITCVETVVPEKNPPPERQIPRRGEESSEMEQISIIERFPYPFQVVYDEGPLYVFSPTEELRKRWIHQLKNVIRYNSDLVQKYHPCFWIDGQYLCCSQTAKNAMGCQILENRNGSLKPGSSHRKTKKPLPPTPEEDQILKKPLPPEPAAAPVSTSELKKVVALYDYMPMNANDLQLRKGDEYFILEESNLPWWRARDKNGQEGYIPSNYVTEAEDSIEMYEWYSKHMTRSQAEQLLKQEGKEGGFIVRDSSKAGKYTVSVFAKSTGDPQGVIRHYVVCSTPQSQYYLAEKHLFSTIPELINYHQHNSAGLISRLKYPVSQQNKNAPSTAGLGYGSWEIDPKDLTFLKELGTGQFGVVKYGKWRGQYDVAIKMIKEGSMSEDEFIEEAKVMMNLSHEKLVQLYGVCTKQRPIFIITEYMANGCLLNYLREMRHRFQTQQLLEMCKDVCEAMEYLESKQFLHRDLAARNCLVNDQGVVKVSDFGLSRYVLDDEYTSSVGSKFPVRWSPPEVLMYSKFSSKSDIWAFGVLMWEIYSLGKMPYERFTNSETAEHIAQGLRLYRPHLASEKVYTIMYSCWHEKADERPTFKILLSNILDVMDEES
Procedure: BTK: Bruton tyrosine kinase
as §4, §5, §6

AXL = AXL (Homo sapiens, UniProt P30530); assay: In vitro enzyme experiment (ELISA), AXL; assay type: biochemical; conditions: Poly (Glu, Tyr)4:1 substrate, 5 μM ATP
Chain of AXL (P30530 473-894): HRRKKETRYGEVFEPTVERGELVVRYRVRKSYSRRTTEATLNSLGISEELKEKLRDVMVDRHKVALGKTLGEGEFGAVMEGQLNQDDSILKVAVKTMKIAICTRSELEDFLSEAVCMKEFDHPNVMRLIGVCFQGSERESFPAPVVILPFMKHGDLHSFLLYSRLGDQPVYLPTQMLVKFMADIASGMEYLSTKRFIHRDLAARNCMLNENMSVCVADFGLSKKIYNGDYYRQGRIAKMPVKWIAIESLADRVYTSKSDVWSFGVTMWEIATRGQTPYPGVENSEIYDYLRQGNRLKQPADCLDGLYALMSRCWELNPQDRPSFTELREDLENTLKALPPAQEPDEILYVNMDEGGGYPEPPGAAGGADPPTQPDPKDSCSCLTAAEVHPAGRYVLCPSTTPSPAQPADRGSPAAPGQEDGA
Procedure: as §4, with “AXL: Anaplastic lymphoma kinase Methods: ELISA:” for “ELISA:”, “nm. The relative inhibition rate of the compound against tyrosine kinase protein was determined. According to the inhibition rates at different concentrations, IC50 was calculated by LOGIT method. The experiments were repeated three times, and the average of three IC50 values was the final index to evaluate the ability of inhibition.” for “nm.”

SGC7901 = assay: In vitro cell experiment (MTT), SGC7901; assay type: cell-based; conditions: SGC-7901, 72 h, human gastric carcinoma cells
Procedure: as §2, §3

Row | Compound | IC50 (PC-9) [nM] | IC50 (TT) [nM] | IC50 (FLT-1) [nM] | IC50 (H292) [nM] | IC50 (Eca109) [nM] | MTD [1] [mg/kg] | IC50 (A498) [nM] | IC50 (PDGFRβ) [nM] | IC50 (3T3swiss) [nM] | IC50 (HCT116) [nM] | IC50 (CFPAC-1) [nM] | IC50 (A549) [nM] | IC50 (Bel-7402) [nM] | IC50 (A431) [nM] | IC50 (HUVEC) [nM] | IC50 (SK-OV-3) [nM] | IC50 (KDR) [nM] | IC50 (RET) [nM] | IC50 (HT-29) [nM] | IC50 (A375) [nM] | also measured
1 | COc1cc2c(Nc3ccc(Br)cc3F)ncnc2cc1OCCCN(C)C [Compound 29, 4-(4-bromo-2-fluoroanilino)-6-methoxy-7-(3-(dimethylamino)-propoxy)quinazoline] | 7.1 | 127 | 30.8 | 45.6 | 5420 | 125 to 250 | 2360 | 246 | 1370 | 652 | 5150 | 2160 | 5880 | 2740 | 23.8 | 2560 | 17.4 | 13.4 | 2170 | 102 | IC50 (FGFR-1): 24.6 nM; IC50 (HCC827): 0.6 nM; IC50 (EGFR): 127 nM; IC50 (BTK): 260 nM; IC50 (AXL): 1830 nM; IC50 (SGC7901): 4450 nM
2 | COc1cc2c(Nc3ccc(F)c(Cl)c3)ncnc2cc1OCCCCN(C)C [Compound 37, 4-(3-chloro-4-fluoroanilino)-6-methoxy-7-(4-(dimethylamino)-butoxy)quinazoline] | 8.7 | 134 | 30.4 | 39.6 | 5750 | 250 to 500 | 2160 | 189 | 1550 | 562 | 5860 | 1770 | 5590 | 1090 | 29.5 | 2090 | 15.9 | 15.8 | 2500 | 78.2 | IC50 (FGFR-1): 27.7 nM; IC50 (HCC827): 0.6 nM; IC50 (EGFR): 98.5 nM; IC50 (BTK): 312 nM; IC50 (AXL): 1720 nM; IC50 (SGC7901): 4020 nM
3 | COc1cc2c(Nc3ccc(F)c(Cl)c3)ncnc2cc1OCCCCN1CCCC1 [Compound 40, 4-(3-chloro-4-fluoroanilino)-6-methoxy-7-(4-(pyrrolidin-1-yl)butoxy)quinazoline] | 7.8 | 93 | 39.8 | 56.4 | 5460 | 125 to 250 | 2460 | 241 | 1810 | 605 | 5320 | 2400 | 5880 | 1560 | 12.4 | 1190 | 18.7 | 17.3 | 2330 | 247 | IC50 (FGFR-1): 28.4 nM; IC50 (HCC827): 0.1 nM; IC50 (EGFR): 113 nM; IC50 (BTK): 306 nM; IC50 (AXL): 1990 nM; IC50 (SGC7901): 3690 nM
4 | COc1cc2c(Nc3ccc(F)c(Cl)c3)ncnc2cc1OCCCN1CCCC1 [Compound 39, 4-(3-chloro-4-fluoroanilino)-6-methoxy-7-(3-(pyrrolidin-1-yl)propoxy)quinazoline] | 6.6 | 186 | 34.6 | 45.7 | 5750 | 62.5 to 125 | 2310 | 258 | 1750 | 510 | 5250 | 2660 | 5660 | 2260 | 18.8 | 1320 | 18.9 | 10.2 | 2870 | 197 | IC50 (FGFR-1): 19.6 nM; IC50 (HCC827): 0.2 nM; IC50 (EGFR): 121 nM; IC50 (BTK): 297 nM; IC50 (AXL): 2050 nM; IC50 (SGC7901): 4520 nM
